Assay results taken from US20160045505A1, “COMPOUNDS AND COMPOSITIONS FOR THE TREATMENT OF PARASITIC DISEASES” (NOVARTIS AG, priority 2013, published 2016).
Where two headings read alike, the source gives them in different places.

Tests used:
[1] = test system: Trypanosoma brucei Lister 427 strain, bloodstream form; assay: Assay for proliferation of kinetoplastid parasite Trypanosoma brucei (Cell Titer Glo, 48 hours); assay type: cell-based; details: Trypanosoma brucei, T. brucei Lister 427 bloodstream form, read-out: T. brucei EC50
Outline: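 Bloodstream-form T. brucei Lister 427 in HMI-9 medium was exposed to compound (DMSO vehicle) for 48 hours at 37° C, 5% CO2. Parasite growth was read as ATP by CellTiter-Glo luminescence, with EC50 calculated from percent inhibition.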

[2] = test system: L. donovani HU3 strain in mouse peritoneal macrophages; assay: Assay for proliferation of Leishmania parasites in infected mouse peritoneal macrophages (SybrGreen staining, high-content imaging, 5 days); assay type: cell-based, Leishmania donovani; details: Leishmania donovani, Peritoneal macrophage, L. donovani in mouse peritoneal macrophages, read-out: L. donovani Macrophage EC50
[3] = test system: Trypanosoma cruzi amastigotes (Tulahuen strain expressing Lac-Z) cultured in 3T3 fibroblast cells; assay: microbe, parasite or virus in culture; assay type: cell-based; details: Trypanosoma cruzi, TULAHUEN, Fibroblast, T. cruzi amastigotes in 3T3 fibroblast cells, read-out: T cruzi EC50
[4] = test system: Leishmania donovani axenic amastigote parasites; assay: Leishmania donovani axenic amastigote proliferation assay (Cell TiterGlo luminescence, 2 day incubation); assay type: cell-based; details: Leishmania donovani, read-out: L. donovani amastigotes EC50
[5] = axenic amastigotes, inhibition of proliferation

Structure (SMILES)	EC50 [1]	EC50 [2]	EC50 [3]	EC50 ([4]; L. donovani axenic amastigotes)	EC50 ([1]; inhibition of proliferation)	EC50 ([2]; inhibition of proliferation)	EC50 ([3]; inhibition of proliferation)	EC50 [4, 5]
Cc1nc(C)c(C(=O)Nc2ccc(F)c(-c3cn4cc(C5=CCN(Cc6ccccc6)CC5)cnc4n3)c2)o1 [Compound 378]	38 nM	134 nM	47 nM	543 nM				
Cc1ncoc1C(=O)Nc1cccc(-c2cn3cc(NC(=O)OC(C)C)cnc3n2)c1 [Compound 204]					676 nM	19200 nM	4100 nM	941 nM
CC(C)OC(=O)Nc1ccc(F)c(-c2cn3cc(C(C)C)cnc3n2)c1 [Compound 414]	131 nM	1160 nM	115 nM	217 nM				
CC(C)OC(=O)Nc1cnc2nc(-c3cc(NC(=O)c4nccn4C)ccc3F)cn2c1 [Compound 97]					13200 nM	18200 nM	10500 nM	12000 nM
O=C1CCC(C(=O)Nc2cnc3nc(-c4cc(NC(=O)N5CCCC5)ccc4F)cn3c2)N1 (centres unmarked) [Compound 125]					7940 nM	> 50000 nM	> 20000 nM	> 21900 nM
Cc1nc(C)c(C(=O)Nc2ccc(F)c(-c3cn4cc(-c5ccc(CN(C)C)cc5)cnc4n3)c2)o1 [Compound 360]					116 nM	450 nM	252 nM	3370 nM
CC(C)OC(=O)Nc1cnc2nc(-c3cc(NC(=O)C4CC(=O)C4)ccc3F)cn2c1 [Compound 101]					3490 nM	2520 nM	9950 nM	636 nM
Cc1nc(C)c(C(=O)Nc2ccc(F)c(-c3cn4cc(NC(=O)C5CN(C)CCO5)cnc4n3)c2)o1 (centres unmarked) [Compound 152]					425 nM	2380 nM	4670 nM	1730 nM
Cc1cccc(-c2cnc3nc(-c4cc(NC(=O)c5oc(C)nc5C)ccc4F)cn3c2)n1 [Compound 376]	158 nM	256 nM	96 nM	85 nM				
Cc1nc(C)c(C(=O)Nc2ccc(F)c(-c3cn4cc(C5=CCCO5)cnc4n3)c2)o1 [Compound 371]					1470 nM	2300 nM	465 nM	1650 nM
Cc1ncc(C(=O)Nc2ccc(F)c(-c3cn4cc(C(F)(F)F)cnc4n3)c2)o1 [Compound 201]					460 nM	208 nM	126 nM	58 nM
CC(C)OC(=O)Nc1ccc(F)c(-c2cn3cc(-c4ccccn4)cnc3n2)c1 [Compound 314]					51 nM	95 nM	15 nM	46 nM
CNc1ccc(-c2cnc3nc(-c4cc(NC(=O)c5oc(C)nc5C)ccc4F)cn3c2)nc1 [Compound 432]	18 nM	33 nM	21 nM	12 nM				
CC(C)OC(=O)Nc1cnc2nc(-c3cc(NC(=O)C(C)C)ccc3F)cn2c1 [Compound 105]					1480 nM	> 50000 nM	1460 nM	2170 nM
CC(C)OC(=O)Nc1ccc(F)c(-c2cn3cc(C4=CCOCC4)cnc3n2)c1 [Compound 332]					124 nM	592 nM	134 nM	166 nM
COc1cnc2nc(-c3cc(NC(=O)c4oc(C)nc4C)ccc3F)cn2c1 [Compound 607]	1040 nM	443 nM	437 nM	705 nM				
Cc1nc(C)c(C(=O)Nc2ccc(F)c(-c3cn4cc(-c5cccn5C(=O)OC(C)(C)C)cnc4n3)c2)o1 [Compound 364]					178 nM	155 nM	220 nM	279 nM
Cc1nnc(C(=O)Nc2ccc(Cl)c(-c3cn4cc(NC(=O)OC(C)C)cnc4n3)c2)o1 [Compound 527]	> 50000 nM	5770 nM	> 20000 nM	> 25000 nM				
CC(C)(C)OC(=O)N1CCOC(C(=O)Nc2ccc(F)c(-c3cn4cc(C5CC5)cnc4n3)c2)C1 (centres unmarked) [Compound 602]	> 50000 nM	> 50000 nM	13600 nM	> 25000 nM				
O=C(Nc1ccc(F)c(-c2cn3cc(F)cnc3n2)c1)N1CC[C@@H](F)C1 [Compound 234]					151 nM	741 nM	155 nM	219 nM
Cc1nc(C)c(C(=O)Nc2ccc(F)c(-c3cn4cc(N(C)C(=O)OC(C)C)cnc4n3)c2)o1 [Compound 552]	240 nM	967 nM	326 nM	420 nM				
O=C(Nc1cnc2nc(-c3cc(NC(=O)N4CCCC4)ccc3F)cn2c1)C1CCCCO1 (centres unmarked) [Compound 129]					123 nM	1260 nM	1340 nM	435 nM

Structure (SMILES)	EC50 [1]	EC50 [2]	EC50 [3]	EC50 ([4]; L. donovani axenic amastigotes)	EC50 ([1]; inhibition of proliferation)	EC50 ([2]; inhibition of proliferation)	EC50 ([3]; inhibition of proliferation)	EC50 [4, 5]
COCCOCC(=O)Nc1cnc2nc(-c3cc(NC(=O)N4CCCC4)ccc3F)cn2c1 [Compound 137]					406 nM	24800 nM	8010 nM	2150 nM
CC(C)OC(=O)Nc1cnc2nc(-c3cc(NC(=O)c4c[nH]cn4)ccc3F)cn2c1 [Compound 81]					> 50000 nM	> 50000 nM	> 20000 nM	> 25000 nM
CC(C)OC(=O)Nc1cnc2nc(-c3cc(NC4=NC(C)(C)CO4)ccc3F)cn2c1 [Compound 500]	> 50000 nM	> 17600 nM	> 20000 nM	> 25000 nM				
Cc1ncc(C(=O)Nc2ccc(F)c(-c3cn4cc(C5CCC5)cnc4n3)c2)o1 [Compound 211]					29 nM	55 nM	16 nM	21 nM
CC(C)OC(=O)Nc1cnc2nc(-c3cc(Nc4ncccc4C(F)(F)F)ccc3F)cn2c1 [Compound 485]	> 50000 nM	11500 nM	1970 nM	> 25000 nM				
Cc1nc(C)c(C(=O)Nc2cnc3nc(-c4cc(NC(=O)N5CCCC5)ccc4F)cn3c2)o1 [Compound 123]					414 nM	> 50000 nM	> 20000 nM	423 nM
CC(C)CNC(=O)Nc1ccc(Cl)c(-c2cn3cc(NC(=O)OC(C)C)cnc3n2)c1 [Compound 263]					1100 nM	3530 nM	1320 nM	1740 nM
Cc1ccc(-c2cnc3nc(-c4cc(NC(=O)c5oc(C)nc5C)ccc4F)cn3c2)cn1 [Compound 441]	309 nM	912 nM	141 nM	97 nM				
O=C(Nc1cnc2nc(-c3cc(NC(=O)N4CCCC4)ccc3F)cn2c1)[C@H]1CCCO1 [Compound 126]					126 nM	4050 nM	4860 nM	434 nM
Cc1nc(C(=O)Nc2cnc3nc(-c4cc(NC(=O)c5oc(C)nc5C)ccc4F)cn3c2)no1 [Compound 183]					2100 nM	11500 nM	> 20000 nM	3630 nM
Cc1nc(C)c(C(=O)Nc2ccc(F)c(-c3cn4cc(-c5ccn[nH]5)cnc4n3)c2)o1 [Compound 369]					154 nM	294 nM	988 nM	282 nM
Cc1nc(C)c(C(=O)Nc2ccc(F)c(-c3cn4cc(-c5cnn(C6CCOCC6)c5)cnc4n3)c2)o1 [Compound 385]	369 nM	> 36700 nM	1160 nM	268 nM				
CC(C)Nc1cnc2nc(-c3cc(NC(=O)N4CCC4)ccc3F)cn2c1 [Compound 564]	56 nM	290 nM	204 nM	212 nM				
CN1CCOC(C(=O)Nc2ccc(F)c(-c3cn4cc(C5CC5)cnc4n3)c2)C1 (centres unmarked) [Compound 601]	> 50000 nM	4040 nM	> 20000 nM	> 25000 nM				
Cc1ccccc1-c1cnc2nc(-c3cc(NC(=O)N4CCCC4)ccc3F)cn2c1 [Compound 356]					18 nM	332 nM	16 nM	88 nM
Cc1nc(C)c(C(=O)Nc2ccc(F)c(-c3cn4cc(-c5cnc(C(C)C)cn5)cnc4n3)c2)o1 [Compound 446]	161 nM	146 nM	122 nM	33 nM				
O=C(Nc1ccc(F)c(-c2cn3cc(-c4ccccn4)cnc3n2)c1)N1CC[C@@H](F)C1 [Compound 407]	4 nM	14 nM	14 nM	9 nM				
CN(C)C(=O)Nc1ccc(F)c(-c2cn3cc(C(F)(F)F)cnc3n2)c1 [Compound 298]					355 nM	2230 nM	525 nM	781 nM
CC1COC(Nc2ccc(F)c(-c3cn4cc(NC(=O)OC(C)C)cnc4n3)c2)=N1 (centres unmarked) [Compound 502]	6730 nM	16000 nM	11000 nM	> 25000 nM				
CC(C)OC(=O)Nc1cnc2nc(-c3cc(NC(=O)N4CCOCC4)ccc3Cl)cn2c1 [Compound 216]					3130 nM	> 50000 nM	11500 nM	4430 nM
Cc1nc(C)c(C(=O)Nc2ccc(F)c(-c3cn4cc(OCc5ccccn5)cnc4n3)c2)o1 [Compound 611]	611 nM	1550 nM	1130 nM	645 nM				
Cc1nc(C)c(C(=O)Nc2ccc(F)c(-c3cn4cc(NC(=O)C5CCOC(C)(C)C5)cnc4n3)c2)o1 (centres unmarked) [Compound 159]					1470 nM	10100 nM	9950 nM	2890 nM
